Molecular target: T1, Recombinant human renin (Homo sapiens, UniProt P00797)
T1 construct: isolate the active form (residues 67-406); made in house; host or cells: FreeStyle 293-F cells, transient expression of pcDNA3.1(+)/hREN
T1 sequence (P00797 67-406): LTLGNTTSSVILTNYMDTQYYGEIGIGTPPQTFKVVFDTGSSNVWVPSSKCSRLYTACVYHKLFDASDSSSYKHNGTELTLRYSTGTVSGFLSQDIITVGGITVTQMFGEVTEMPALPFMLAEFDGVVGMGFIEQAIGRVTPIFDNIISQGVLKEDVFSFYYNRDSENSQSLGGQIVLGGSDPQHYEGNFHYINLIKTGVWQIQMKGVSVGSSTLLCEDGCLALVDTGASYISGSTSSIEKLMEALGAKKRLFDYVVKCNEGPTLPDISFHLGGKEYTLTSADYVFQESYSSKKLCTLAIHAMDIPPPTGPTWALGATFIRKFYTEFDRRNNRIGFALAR
Test: In vitro enzymatic activity assay of renin inhibitors (fluorescence, QXL520/HiLyteFluo488 peptide substrate)
Assay type: biochemical
Conditions: recombinant human renin 3 nM, 1 μM substrate, pre-incubated 10 minutes at 37° C., incubation one hour, pH 7.4, 5% DMSO; read-out: IC50 of Exemplified Compounds Against Renin

Row | Structure (SMILES) | IC50
1 | COCCn1c(C(=O)N2CCNC[C@H]2Cc2ccccc2)c(-c2ccccc2)n(C2CCCCC2)c1=O [Example 66, (R)-4-(2-Benzylpiperazine-1-carbonyl)-1-cyclohexyl-3-(2-methoxyethyl)-5-phenyl-1H-imidazol-2(3H)-one] | < 0.1 µM
2 | O=C(O)COc1cccc(Cn2c(C(=O)N3CCNCC3)c(-c3ccccc3)n(-c3cccc(N4CCOCC4)c3)c2=O)c1 [Example 59, 2-(3-((3-(3-Morpholinophenyl)-2-oxo-4-phenyl-5-(piperazine-1-carbonyl)-2,3-dihydro-1H-imidazol-1-yl)methyl)phenoxy)acetic acid] | > 1 µM
3 | O=C(c1c(-c2ccccc2)n(-c2ccccn2)c(=O)n1Cc1ccccc1)N1CCNCC1 [Example 46, 1-Benzyl-4-phenyl-5-(piperazine-1-carbonyl)-3-(pyridin-2-yl)-1H-imidazol-2(3H)-one] | > 1 µM
4 | O=C(c1c(-c2ccccc2)n(C2CCCCC2)c(=O)n1Cc1cccc(-n2cccc2)c1)N1CCNCC1 [Example 72, 1-(3-(1H-Pyrrol-1-yl)benzyl)-3-cyclohexyl-4-phenyl-5-(piperazine-1-carbonyl)-1H-imidazol-2(3H)-one] | 0.1 to 0.5 µM
5 | Cc1ccccc1-n1c(-c2ccccc2)c(C(=O)N2CCNCC2)n(Cc2ccc(F)c(F)c2)c1=O [Example 144, 1-(3,4-Difluorobenzyl)-4-phenyl-5-(piperazine-1-carbonyl)-3-o-tolyl-1H-imidazol-2(3H)-one] | 0.5 to 1 µM
6 | CCOC(=O)N1CCc2ccc(-n3c(-c4ccccc4)c(C(=O)N4CCNC[C@H]4Cc4ccccc4)[nH]c3=O)cc21 [Example 139, (R)-Ethyl 6-(4-(2-benzylpiperazine-1-carbonyl)-2-oxo-5-phenyl-2,3-dihydro-1H-imidazol-1-yl)indoline-1-carboxylate] | < 0.1 µM
7 | O=C(c1c(-c2ccccc2)n(-c2cccc(N3CCOCC3)c2)c(=O)n1CCCNS(=O)(=O)c1cccc(Cl)c1)N1CCNCC1 [Example 195, 3-Chloro-N-(3-(3-(3-morpholinophenyl)-2-oxo-4-phenyl-5-(piperazine-1-carbonyl)-2,3-dihydro-1H-imidazol-1-yl)propyl)benzenesulfonamide] | 0.5 to 1 µM
8 | O=C(c1ccccc1)N1CCCC(n2c(-c3ccccc3)c(C(=O)N3CCNCC3)n(Cc3ccccc3)c2=O)C1 (stereo not shown) [Example 95, 1-(1-Benzoylpiperidin-3-yl)-3-benzyl-5-phenyl-4-(piperazine-1-carbonyl)-1H-imidazol-2(3H)-one] | > 1 µM
9 | CCCS(=O)(=O)Nc1ccccc1-n1c(-c2ccccc2)c(C(=O)N2CCNC[C@H]2Cc2ccccc2)[nH]c1=O [Example 119, (R)—N-(2-(4-(2-Benzylpiperazine-1-carbonyl)-2-oxo-5-phenyl-2,3-dihydro-1H-imidazol-1-yl)phenyl)propane-1-sulfonamide] | < 0.1 µM
10 | O=C(c1c(-c2ccccc2)n(C2CCCC[C@@H]2O)c(=O)n1CCCNS(=O)(=O)c1ccccc1)N1CCNCC1 (stereo partly drawn) [Example 171, N-(3-(3-((2S)-2-Hydroxycyclohexyl)-2-oxo-4-phenyl-5-(piperazine-1-carbonyl)-2,3-dihydro-1H-imidazol-1-yl)propyl)benzenesulfonamide] | > 1 µM
11 | COc1cccc(NC(=O)NCCn2c(C(=O)N3CCNCC3)c(-c3ccccc3)n(-c3ccccc3C)c2=O)c1 [Example 215, 1-(3-Methoxyphenyl)-3-(2-(2-oxo-4-phenyl-5-(piperazine-1-carbonyl)-3-o-tolyl-2,3-dihydro-1H-imidazol-1-yl)ethyl)urea] | 0.1 to 0.5 µM
12 | Cc1ccccc1-n1c(-c2ccccc2)c(C(=O)N2CCNCC2)n(CC2CCCCC2)c1=O [Example 163, 1-(Cyclohexylmethyl)-4-phenyl-5-(piperazine-1-carbonyl)-3-o-tolyl-1H-imidazol-2(3H)-one] | > 1 µM
13 | CC(C)S(=O)(=O)NCCCn1c(C(=O)N2CCNCC2)c(-c2ccccc2)n(-c2cccc(N3CCOCC3)c2)c1=O [Example 196, N-(3-(3-(3-Morpholinophenyl)-2-oxo-4-phenyl-5-(piperazine-1-carbonyl)-2,3-dihydro-1H-imidazol-1-yl)propyl)propane-2-sulfonamide] | > 1 µM
